Experimental data from PubChem BioAssay (NCI).
“And” between values parts separate entries of the source, which are not always exact repeats. Equal values may be shown once.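 Briefly, cells in 96-well plates were exposed to five compound concentrations for 48 h, and endpoints were estimated by linear interpolation. GI50 is the concentration that inhibits growth by half. TGI: concentration producing complete growth inhibition.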

Experiments:
Assay in all cases: NCI-60 cell line screen, 48 h
786-0 renal = system: 786-0 renal
CAKI-1 renal = system: CAKI-1 renal
HOP-62 NSCLC = system: HOP-62 NSCLC
HS 578T breast = system: HS 578T breast
KM12 colon = system: KM12 colon
MALME-3M melanoma = system: MALME-3M melanoma
OVCAR-8 ovarian = system: OVCAR-8 ovarian
T-47D breast = system: T-47D breast

SMILES	GI50 (786-0 renal)	TGI (786-0 renal)	GI50 (CAKI-1 renal)	TGI (CAKI-1 renal)	GI50 (HOP-62 NSCLC)	TGI (HOP-62 NSCLC)	GI50 (HS 578T breast)	TGI (HS 578T breast)	GI50 (KM12 colon)	TGI (KM12 colon)	GI50 (MALME-3M melanoma)	TGI (MALME-3M melanoma)	GI50 (OVCAR-8 ovarian)	TGI (OVCAR-8 ovarian)	GI50 (T-47D breast)	TGI (T-47D breast)
O=C1Nc2c(C(F)(F)F)cccc2[C@]1(c1ccc(O)cc1)c1ccc(OC(F)(F)F)cc1	13.2 µM	28.1 µM	10.1 µM	22.7 µM	15.7 µM	39.9 µM	1.44 µM	5.89 µM	11.3 µM	24.2 µM	13 µM	26.6 µM	5.29 µM	21.8 µM	1.18 µM	17.9 µM
CC(C)(CC(=O)Nc1ccccc1)C(=O)O	–	> 100 µM	–	> 100 µM	–	> 100 µM	–	–	–	> 100 µM	–	–	–	> 100 µM	–	> 100 µM
Oc1ccc(CN2CCC(N3CCCCC3)CC2)c2cccnc12	19.3 µM	> 100 µM	33.8 µM	> 100 µM	6.25 µM	> 100 µM	17.6 µM	> 100 µM	30.3 µM	> 100 µM	24.4 µM	> 100 µM	7.69 µM	> 100 µM	23.6 µM	> 100 µM
CCOc1cc2c(Cl)ncnc2c(OCC)c1OCC	19 µM	36.8 µM	1.56 µM	3.03 µM	15.5 µM	30.9 µM	2.07 µM	5.45 µM	4.96 µM	16.4 µM	9.5 µM	27.5 µM	6.34 µM	28.5 µM	6.11 µM	22.8 µM
COc1cc(C2=C(c3ccccc3)COC2=O)cc(OC)c1OC	4.3 µM	> 100 µM	0.585 µM	> 27.7 µM	2.07 µM	> 100 µM	5.61 µM	> 90 µM	0.593 µM	> 31.7 µM	0.439 µM	> 100 µM	5.04 µM	> 51.4 µM	20.9 µM	> 100 µM
COC1/C=C\C=C(/C)C(=O)NC2=CC(=O)C(=O)C(=C2O)CC(C)CC(OC)C(O)C(C)/C=C(\C)C1OC(N)=O (configuration not stated)	–	24.3 µM	–	> 42 µM	–	> 74.1 µM	–	> 100 µM	–	5.57 µM	–	21.7 µM	–	> 52.4 µM	–	70.9 µM
O=C(/C(Br)=C/c1ccccc1)c1ccccc1	1.9 µM	3.48 µM	1.34 µM	3.39 µM	2.29 µM	6.1 µM	8.12 µM	52.4 µM	7.54 µM	21.4 µM	1.75 µM	3.9 µM	2.75 µM	10.2 µM	1.82 µM	4.71 µM
COc1ccc(-c2cc(=O)c3ccc(O)cc3o2)cc1OC	–	> 100 µM	–	> 100 µM	–	> 100 µM	–	> 100 µM	–	> 100 µM	–	> 100 µM	–	> 100 µM	–	> 100 µM
COc1ccc(/C=C/c2nccc3ccccc23)cc1OC	–	> 10 µM	–	> 10 µM	–	> 10 µM	–	> 10 µM	–	> 10 µM	–	> 10 µM	–	> 10 µM	–	> 10 µM
NC(=O)c1ccc(I)c(N)c1	> 100 µM	> 100 µM	> 100 µM	> 100 µM	> 100 µM	> 100 µM	> 100 µM	> 100 µM	> 100 µM	> 100 µM	> 100 µM	> 100 µM	> 100 µM	> 100 µM	> 100 µM	> 100 µM
Cn1c2ccccc2c2c(-c3ccccc3)[n+]3ccncc3nc21	> 100 µM	> 100 µM	> 100 µM	> 100 µM	> 100 µM	> 100 µM	87.5 µM	> 100 µM	74.9 µM	> 100 µM	93.8 µM	> 100 µM	> 100 µM	> 100 µM	55.3 µM	> 100 µM
CC(C)c1nc(CN(C)C(=O)N[C@H](C(=O)N[C@@H](Cc2ccccc2)C[C@H](O)[C@H](Cc2ccccc2)NC(=O)OCc2cncs2)C(C)C)cs1	24.7 µM	53.5 µM	31.3 µM	68.2 µM	19.6 µM	38.2 µM	–	–	23.1 µM	56.7 µM	22.1 µM	> 57 µM	36.3 µM	> 100 µM	21.7 µM	73 µM
O=C1CCCCN1CCCCC#Cc1ccccc1C#Cc1ccc([N+](=O)[O-])cc1	8.41 µM	79 µM	2.93 µM	15 µM	8.01 µM	22.5 µM	5.05 µM	23.5 µM	3.78 µM	15.7 µM	37.2 µM	> 100 µM	2.81 µM	9.13 µM	3.52 µM	18.7 µM
N#Cc1ccc(O)c(C2=NCC(c3cccc(Oc4ccccc4)c3)O2)c1 (configuration not stated)	0.761 µM	7.59 µM	0.392 µM	37.9 µM	0.605 µM	12.7 µM	3.03 µM	> 100 µM	0.687 µM	23.1 µM	1.83 µM	7.76 µM	0.578 µM	> 100 µM	0.817 µM	59.6 µM
Oc1c(CN2CCC(N3CCCCC3)CC2)cc(Cc2cc(CN3CCC(N4CCCCC4)CC3)c(O)c3ncccc23)c2cccnc12	1.53 µM	5.96 µM	0.941 µM	10.2 µM	0.425 µM	4.93 µM	4.67 µM	28.7 µM	0.677 µM	14.6 µM	1.79 µM	4.26 µM	1.83 µM	12.3 µM	0.51 µM	4.8 µM
CC1=CC(=Nc2ccc(N(CCCl)CCCl)cc2)C=C(C)C1=O	0.457 µM	2.39 µM	0.116 µM	1.08 µM	1.1 µM	7.37 µM	2.08 µM	7.73 µM	2.64 µM	11.3 µM	1.84 µM	6.49 µM	–	–	0.64 µM	3.22 µM
CC[C@@H]1CN(C)[C@H]2Cc3c([nH]c4ccccc34)C(=O)C[C@H]1C2C(=O)OC (some centres not stated)	–	> 100 µM	–	> 100 µM	–	> 100 µM	–	> 100 µM	–	> 100 µM	–	> 100 µM	–	> 100 µM	–	> 100 µM
CCN(CC)CCOc1ccc(/C(=C(\Cl)c2ccccc2)c2ccccc2)cc1	0.94 µM and 1.7 µM	1.81 µM and 3.17 µM	5.47 µM and 1.66 µM	12.3 µM and 5.48 µM	1.38 µM and 1.94 µM	4.76 µM and 4.16 µM	5.25 µM and 3.15 µM	19.4 µM and 17.7 µM	2.1 µM and 1.87 µM	7.2 µM and 4.08 µM	1.21 µM and 1.43 µM	3.88 µM and 2.99 µM	7 µM and 4.65 µM	14.3 µM and 18.6 µM	1.51 µM and 1.73 µM	9.55 µM and 12.9 µM

SMILES	GI50 (786-0 renal)	TGI (786-0 renal)	GI50 (CAKI-1 renal)	TGI (CAKI-1 renal)	GI50 (HOP-62 NSCLC)	TGI (HOP-62 NSCLC)	GI50 (HS 578T breast)	TGI (HS 578T breast)	GI50 (KM12 colon)	TGI (KM12 colon)	GI50 (MALME-3M melanoma)	TGI (MALME-3M melanoma)	GI50 (OVCAR-8 ovarian)	TGI (OVCAR-8 ovarian)	GI50 (T-47D breast)	TGI (T-47D breast)
C=C1C(=O)O[C@H]2[C@H]1CC/C(COC(=O)c1ccc3ccccc3c1)=C\CC[C@@]1(C)O[C@@H]21	1.18 µM	2.65 µM	1.22 µM	2.46 µM	1.56 µM	2.97 µM	1.53 µM	4.51 µM	1.48 µM	3.16 µM	1.74 µM	3.47 µM	1.1 µM	2.56 µM	1.03 µM	2.73 µM
CCN(CC)c1ccc(/C=C/c2ccc3cc(C)ccc3[n+]2CC)cc1	0.295 µM	6.46 µM	2.03 µM	12 µM	0.158 µM	6.21 µM	1.01 µM	69 µM	0.103 µM	1.89 µM	0.149 µM	1.33 µM	0.107 µM	12.6 µM	0.0182 µM	1.41 µM
COc1ccc(-c2cc(=O)c3c(OC)c(OC)c(OC)cc3o2)cc1	–	> 100 µM	–	> 100 µM	–	59.8 µM	–	> 100 µM	–	–	–	> 100 µM	–	> 100 µM	–	62.4 µM
COC(=O)[C@]12CC[C@@H](C)[C@H](C)[C@@H]1C1=CC[C@@H]3[C@@]4(C)C/C(=N\O)[C@H](O)[C@@]5(C)COC(=C45)C[C@@]3(C)[C@]1(C)CC2	1.76 µM	3.26 µM	11.2 µM	24.7 µM	12.3 µM	26.3 µM	11.4 µM	32.5 µM	5.77 µM	20.2 µM	15.9 µM	34.2 µM	10 µM	26.6 µM	9.3 µM	25.7 µM
COc1ccc(-c2cnnc3c(-c4cccc(C(F)(F)F)c4)cnn23)cc1	2.76 µM	> 100 µM	3.3 µM	> 100 µM	2.72 µM	13.1 µM	4.11 µM	> 100 µM	> 100 µM	> 100 µM	–	–	3.33 µM	> 100 µM	6.37 µM	> 100 µM
COc1ccc(NC2=CC(=O)C(=O)c3ccccc32)nn1	–	3.76 µM	–	6.24 µM	–	–	–	> 100 µM	–	1.62 µM	–	1.96 µM	–	5.35 µM	–	11.9 µM
C[C@@H]1OC(O)[C@@H](F)[C@H](O)[C@@H]1O (some centres not stated)	> 100 µM	> 100 µM	> 100 µM	> 100 µM	> 100 µM	> 100 µM	> 100 µM	> 100 µM	> 100 µM	> 100 µM	> 100 µM	> 100 µM	> 100 µM	> 100 µM	> 100 µM	> 100 µM
Oc1ccc(NCc2nc3ccccc3[nH]2)cc1	74.5 µM	> 100 µM	> 100 µM	> 100 µM	22.4 µM	62.2 µM	15 µM	79.2 µM	> 100 µM	> 100 µM	76.3 µM	> 100 µM	26.8 µM	> 100 µM	31.2 µM	> 100 µM
C[C@]12CC[C@H]3[C@@H](CC=C4C[C@@H](O)CC[C@@]43C)[C@@H]1CC[C@@H]2N(CCO)CCO	–	42.7 µM	–	> 100 µM	–	> 100 µM	–	> 100 µM	–	> 100 µM	–	> 100 µM	–	> 100 µM	–	> 100 µM
CC(C)(C)OC(=O)N1CCc2c(sc3ncnc(N/N=C/c4cccc5ccccc45)c23)C1	4.83 µM	> 100 µM	3.35 µM	> 100 µM	3.79 µM	> 100 µM	2.4 µM	> 100 µM	4.3 µM	76.9 µM	3.97 µM	36.3 µM	4.23 µM	> 100 µM	3.04 µM	31.9 µM
OCc1c[nH]c2ccccc12	33.7 µM	93.3 µM	15.8 µM	52.8 µM	14.4 µM	36.7 µM	33.9 µM	> 100 µM	16 µM	37.2 µM	–	–	29.8 µM	> 100 µM	16 µM	> 100 µM
N#CSc1c[nH]c2cccc(/C=C/C(=O)/C=C(/C=C/c3cccc4[nH]cc(SC#N)c34)OB(F)F)c12	0.344 µM	2.06 µM	0.887 µM	8.62 µM	3.16 µM	17.1 µM	2.17 µM	> 58.6 µM	1.04 µM	3.98 µM	0.272 µM	0.824 µM	0.355 µM	> 59.5 µM	0.358 µM	6.2 µM
COc1cc(C2NC(=O)c3ccccc3N2)ccc1OCCCCCOc1c(OC)cc(C2=NOC(c3cc(OC)c(OC)c(OC)c3)C2)cc1OC (configuration not stated)	27.4 µM	> 78.7 µM	> 42.4 µM	> 100 µM	17.3 µM	61.3 µM	15.7 µM	> 82 µM	7.59 µM	98.8 µM	–	–	25.2 µM	> 100 µM	0.239 µM	> 100 µM
Cc1ccc2c(c1)[n+]([O-])c(N)n[n+]2[O-]	–	> 100 µM	–	> 100 µM	–	> 100 µM	–	> 100 µM	–	> 100 µM	–	–	–	> 100 µM	–	> 100 µM
CS(=O)(=O)c1ccc([C@H]2O[C@@H](CO)C[C@]2(O)c2ccc(S(C)(=O)=O)cc2)cc1	> 100 µM	> 100 µM	> 100 µM	> 100 µM	> 100 µM	> 100 µM	> 100 µM	> 100 µM	> 100 µM	> 100 µM	> 100 µM	> 100 µM	> 100 µM	> 100 µM	–	–
CC(=O)OCCN1c2ccccc2Sc2cnccc21	–	> 10 µM	–	> 10 µM	–	> 10 µM	–	–	–	> 10 µM	–	> 10 µM	–	> 10 µM	–	> 10 µM
CCC(C)c1c(Cl)nc(Cl)nc1Cl (configuration not stated)	–	30 µM	–	–	–	16 µM	–	> 100 µM	–	10.6 µM	–	> 100 µM	–	38.3 µM	–	–
